Experimental data from ChEMBL document CHEMBL1137937, “Synthesis and pharmacological evaluation of prenylated and benzylated pterocarpans against snake venom” (2004).

How the values were obtained:
Type in all cases: functional
Mus musculus [1] = species: Mus musculus; assay: Inhibition of the increase of the rate of CK release induced by […] of Bothrops jararacussu venom on isolated EDL mouse muscles after 60 min of exposure at 0.1-30 uM
Mus musculus [2] = species: Mus musculus; assay: Inhibition of the increase of the rate of CK release induced by […] of Bothrops jararacussu venom on isolated EDL mouse muscles after 60 min of exposure at 0.1-10 uM
Mus musculus [3] = species: Mus musculus; assay: Inhibition of the increase of the rate of CK release induced by […] of Bothrops jararacussu venom on isolated EDL mouse muscles after 60 min of exposure at 0.1-1.0 uM
Mus musculus [4] = species: Mus musculus; assay: Inhibition of the increase of the rate of CK release induced by […] of Bothrops jararacussu venom on isolated EDL mouse muscles after 60 min of exposure at 10-30 uM

| Compound | Inhibition (Mus musculus [1]) [%] | further results |
| --- | --- | --- |
| Oc1ccc2c(c1)OC[C@H]1c3cc4c(c(Cc5ccccc5)c3O[C@@H]21)OCO4 | 0 | – |
| CC(C)=CCc1c2c(cc3c1O[C@H]1c4ccc(O)cc4OC[C@@H]31)OCO2 | 0 | – |
| Oc1ccc2c(c1Cc1ccccc1)OC[C@H]1c3cc4c(cc3O[C@@H]21)OCO4 | – | Inhibition (Mus musculus [2]): >70% |
| Oc1ccc2c(c1)OC[C@H]1c3cc4c(cc3O[C@@H]21)OCO4 [MAACKIAIN] | 0 | – |
| CC(C)=CCc1c(O)ccc2c1OC[C@H]1c3cc4c(cc3O[C@@H]21)OCO4 | – | Inhibition (Mus musculus [3]): >40%; Inhibition (Mus musculus [4]): 0% |
| Oc1ccc2c(c1Cc1ccccc1)OC[C@H]1c3cc4c(c(Cc5ccccc5)c3O[C@@H]21)OCO4 | 0 | – |
| CC(C)=CCc1c2c(cc3c1O[C@H]1c4ccc(O)c(CC=C(C)C)c4OC[C@@H]31)OCO2 | 0 | – |
